Test system: SEM cells
Experiment: cell viability relative to DMSO control; higher = less cytotoxic
Conditions: 48 h
Procedure, shortened: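 Viability values are per-plate percentages of DMSO wells, with background from cell-free wells. Library compounds in DMSO were pin-dosed, in an 11-point threefold series from 47 μM to 0.79 nM, onto NOMO1 or SEM (500 cells/well) or P12-Ichikawa (1000 cells/well) leukemia cells in 1536-well plates (5 μl). Those cells had been adapted for at least four passages in each medium, and CellTiter-Glo One luminescence was read after 48 h at 37°C.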

[1] = HPLM + 10% dialyzed FBS, 0.000781 µM
[2] = HPLM + 10% dialyzed FBS, 0.00234 µM
[3] = HPLM + 10% dialyzed FBS, 0.00702 µM
[4] = HPLM + 10% dialyzed FBS, 0.0211 µM
[5] = HPLM + 10% dialyzed FBS, 0.0632 µM
[6] = HPLM + 10% dialyzed FBS, 0.19 µM
[7] = HPLM + 10% dialyzed FBS, 0.569 µM
[8] = HPLM + 10% dialyzed FBS, 1.71 µM
[9] = HPLM + 10% dialyzed FBS, 5.12 µM
[10] = HPLM + 10% dialyzed FBS, 15.4 µM
[11] = HPLM + 10% dialyzed FBS, 46.1 µM
[12] = RPMI 5 mM glucose + 10% FBS, 0.000781 µM
[13] = RPMI 5 mM glucose + 10% FBS, 0.00234 µM
[14] = RPMI 5 mM glucose + 10% FBS, 0.00702 µM
[15] = RPMI 5 mM glucose + 10% FBS, 0.0211 µM
[16] = RPMI 5 mM glucose + 10% FBS, 0.0632 µM
[17] = RPMI 5 mM glucose + 10% FBS, 0.19 µM
[18] = RPMI 5 mM glucose + 10% FBS, 0.569 µM
[19] = RPMI 5 mM glucose + 10% FBS, 1.71 µM
[20] = RPMI 5 mM glucose + 10% FBS, 5.12 µM
[21] = RPMI 5 mM glucose + 10% FBS, 15.4 µM
[22] = RPMI 5 mM glucose + 10% FBS, 46.1 µM
[23] = RPMI 5 mM glucose + 10% dialyzed FBS, 0.000781 µM
[24] = RPMI 5 mM glucose + 10% dialyzed FBS, 0.00234 µM
[25] = RPMI 5 mM glucose + 10% dialyzed FBS, 0.00702 µM
[26] = RPMI 5 mM glucose + 10% dialyzed FBS, 0.0211 µM
[27] = RPMI 5 mM glucose + 10% dialyzed FBS, 0.0632 µM
[28] = RPMI 5 mM glucose + 10% dialyzed FBS, 0.19 µM
[29] = RPMI 5 mM glucose + 10% dialyzed FBS, 0.569 µM
[30] = RPMI 5 mM glucose + 10% dialyzed FBS, 1.71 µM
[31] = RPMI 5 mM glucose + 10% dialyzed FBS, 5.12 µM
[32] = RPMI 5 mM glucose + 10% dialyzed FBS, 15.4 µM
[33] = RPMI 5 mM glucose + 10% dialyzed FBS, 46.1 µM

| Structure (SMILES) | cell viability [1] [%] | cell viability [2] [%] | cell viability [3] [%] | cell viability [4] [%] | cell viability [5] [%] | cell viability [6] [%] | cell viability [7] [%] | cell viability [8] [%] | cell viability [9] [%] | cell viability [10] [%] | cell viability [11] [%] | cell viability [12] [%] | cell viability [13] [%] | cell viability [14] [%] | cell viability [15] [%] | cell viability [16] [%] | cell viability [17] [%] | cell viability [18] [%] | cell viability [19] [%] | cell viability [20] [%] | cell viability [21] [%] | cell viability [22] [%] | cell viability [23] [%] | cell viability [24] [%] | cell viability [25] [%] | cell viability [26] [%] | cell viability [27] [%] | cell viability [28] [%] | cell viability [29] [%] | cell viability [30] [%] | cell viability [31] [%] | cell viability [32] [%] | cell viability [33] [%] |
| --- | --- | --- | --- | --- | --- | --- | --- | --- | --- | --- | --- | --- | --- | --- | --- | --- | --- | --- | --- | --- | --- | --- | --- | --- | --- | --- | --- | --- | --- | --- | --- | --- | --- |
| C[C@]12CC[C@@H]3c4ccc(OC(=O)N(CCCl)CCCl)cc4CC[C@H]3[C@@H]1CC[C@@H]2OP(=O)([O-])[O-].[Na+].[Na+] | 107 | 107 | 120 | 109 | 106 | 105 | 104 | 108 | 66.8 | 62.5 | 63.2 | 101 | 118 | 120 | 99.2 | 118 | 115 | 87.9 | 90.5 | 68.1 | 65.4 | 27.5 | 111 | 112 | 102 | 85.3 | 110 | 93.9 | 83.4 | 76.3 | 67.5 | 65.3 | 54.9 |
| CC1CCC(C(=O)N(c2cc(C#CC(C)(C)C)sc2C(=O)O)C2CCC(O)CC2)CC1 (stereo not drawn) | 106 | 109 | 99.2 | 103 | 98 | 93.3 | 89.1 | 96 | 77.3 | 48.9 | 44.2 | 130 | 119 | 118 | 129 | 116 | 115 | 110 | 123 | 97.4 | 61.1 | 49.8 | 91.7 | 106 | 90.3 | 87.9 | 90.3 | 90.3 | 96.6 | 88.3 | 77.6 | 44.7 | 41.8 |
| COC1=NC(=NC(=C1N\C2=N\CCN2)Cl)C | 71.4 | 88.7 | 47.6 | 91.8 | 99.9 | 94.1 | 114 | 102 | 44.4 | 108 | 100 | 81 | 79.3 | 45 | 84 | 79.6 | 83.5 | 106 | 81.9 | 34.1 | 103 | 99.2 | 74.6 | 80 | 46.6 | 102 | 104 | 104 | 101 | 101 | 49.6 | 98.7 | 113 |
| CN(CC#C)C/C1=C/C2=CC=CC=C2OC3=CC=CC=C13 | 90.9 | 90.7 | 79.7 | 80.1 | 76.8 | 40.6 | 32.1 | 91.6 | 30.1 | 49.2 | 42 | 100 | 109 | 113 | 105 | 83.3 | 49.9 | 36.8 | 117 | 41.4 | 61.3 | 50.3 | 80.4 | 85.3 | 81.2 | 69.2 | 60.6 | 32.8 | 29.1 | 103 | 29.2 | 47.3 | 37.7 |
| C[C@H]1[C@H](NC(=O)/C(=N/OC(C)(C)C(=O)O)c2csc(N)n2)C(=O)N1[S+](=O)([O-])O | 89.9 | 102 | 100 | 99.3 | 95.2 | 103 | 100 | 93.1 | 104 | 107 | 86.1 | 98.7 | 103 | 106 | 106 | 107 | 88.3 | 104 | 110 | 104 | 101 | 79.7 | 106 | 107 | 121 | 113 | 110 | 129 | 114 | 113 | 105 | 64.8 | 88.2 |
| CNC(=O)c1ccc(-c2cnc3ncc(Cc4ccc5ncccc5c4)n3n2)cc1F | 108 | 126 | 122 | 119 | 128 | 117 | 124 | 137 | 120 | 127 | 124 | 110 | 129 | 100 | 127 | 133 | 124 | 126 | 125 | 124 | 133 | 105 | 116 | 121 | 129 | 126 | 129 | 130 | 144 | 146 | 131 | 118 | 132 |
| CN(c1ncccc1CNc1nc(Nc2ccc3c(c2)CC(=O)N3)ncc1C(F)(F)F)[S+](C)(=O)[O-] | – | – | – | – | – | – | – | – | – | – | – | 120 | 122 | 140 | 129 | 129 | 92.7 | 99 | 91.3 | 13 | 18.9 | 4.29 | 112 | 125 | 122 | 119 | 140 | 119 | 111 | 17.1 | 11.8 | 11.6 | 3.18 |
| COc1ccc(-c2cc3nccn3c(Nc3ncccc3C(N)=O)n2)cc1OC | 81.8 | 92.1 | 90.4 | 86.8 | 85.7 | 91.4 | 85.3 | 61.6 | 74.4 | 65.9 | 58.8 | 82.7 | 105 | 103 | 100 | 99 | 87.2 | 89.2 | 63.1 | 81 | 60.7 | 58.1 | 85.7 | 91.6 | 86.6 | 101 | 91 | 76.2 | 68.5 | 49.9 | 59.3 | 49.1 | 49.5 |
